Results published in patent publication US9562066B2, “Oral therapy of necrotizing enterocolitis” (University of Pittsburgh—of the Commonwealth System of …, priority 2012, dated 2017).

Tests used:
[1] = tested on: TLR4-mediated inflammation in human ex vivo intestinal tissue; assay: LPS-induced (TLR4-mediated) inflammation in human ex vivo control and NEC intestinal tissue, qRT-PCR; format: cell-based; settings: CpG 1 uM, LPS 50 ug/ml 3 hours
Protocol: (§1) The effect of CpG-ODN 5′-[…]-3′ (SEQ ID NO:6; ODN 1826) on inhibiting NEC in a murine NEC model in vivo, and in ex vivo human samples from infants undergoing intestinal resection for active NEC or at the time of stoma closure was examined. To determine the level of NEC inhibition, the extent of LPS signaling was determined by the degree of expression of pro-inflammatory cytokines iNOS and TNFα by Quantitative real-time PCR (qRT-PCR).
All human tissue was obtained and processed as discarded tissue via waiver of consent with approval from the University of Pittsburgh Institutional Review Board and in accordance with the University of Pittsburgh anatomical tissue procurement guidelines. Human tissue was obtained from infants undergoing intestinal resection for active NEC or at the time of stoma closure (healed NEC at the time of stoma closure). After initial review by the duty pathologist to ensure that adequate diagnostic information was obtained from the gross tissue specimen, the intestinal resection was divided into multiple pieces, and treated in triplicate with media alone, LPS 50 ug/ml, CpG (1 uM) alone or LPS+CpG as described by Neal et al. (55). After 3 hours of treatment, tissue was processed for qRT-PCR, and assessed for the expression of IL1β, TLR4, iNOS or IL-6.
(§2) The extent of LPS signaling was determined by the degree of pro-inflammatory cytokines, iNOS, and TNFα by Quantitative real-time PCR (qRT-PCR). qRT-PCR was performed using the Bio-Rad CFX96 Real-Time System (Biorad, Hercules, Calif.) using the primers listed in the table below.

[2] = tested on: murine model for NEC (mNEC); assay: Murine model for NEC (mNEC), oral CpG-ODN during induction (Example 1); format: in vivo, mouse; settings: for gross morphology: mNEC mice treated orally vs untreated mNEC mice, FIG. 5; for expression of TNFα in the intestines (quantitative RT-PCR) / disruption of the small intestine mucosa (H&E histology): mNEC mice; for expression of TNFα in the intestines (quantitative RT-PCR): oral 1 mg/kg twice per day in formula, day 4 after mNEC induction, FIG. 1; for disruption of the small intestine mucosa (H&E histology): FIG. 2A-F; for body weight: treated vs untreated mNEC mice
Protocol: (§3) A murine model for NEC (“mNEC”) was produced in newborn mice by 4 days of hypoxia and formula gavage (52), which leads to the induction of iNOS, reduced enterocyte proliferation, and disruption of the ileal mucosa (“mNEC” mice) as compared to control mice that were allowed to breast feed (“BF” mice”). Specifically, mNEC was induced in 10-d-old mice (12) using formula gavage [Similac Advance infant formula (Abbott Nutrition):Esbilac canine milk replacer, 2:1] 50 μL/g body weight, five times per day for 4 d, and hypoxia (5% O2, 95% N2) administered for 10 min twice daily for 4 d using a hypoxia chamber (Billups-Rothenberg Inc.). CpG-1 was […]-3′ (SEQ ID NO:6), containing phosphorothioate linkages, known in the art as CpG ODN 1826 (Coley Pharmaceutical Group, Ottawa, Ontario, Canada (Pfizer)). CpG-2 was 5′ […] 3′ (SEQ ID NO:9). CpG-1 or CpG-2 was administered at a dose of 1 mg/kg at a frequency of twice per day in the infant formula described above. Oral administration to breast-fed and NEC animals was achieved by gavage with a silastic foam tipped angiocatheter.
Quantitative RT-PCR was used to assess the effects of orally administered CpG-1 or CpG-2 on expression of the inflammatory cytokine tumor necrosis factor alpha (TNFα) in mNEC versus BF mice. Measurements were made on day 4 after mNEC induction. […] This effect was reflected by histologic evaluation, as depicted in FIG. 2A-F, where the disruption of the small intestine mucosa observed in untreated mNEC mice (FIG. 2B) is ameliorated in mNEC mice orally treated with CpG-1 or CpG-2 (FIGS. 2C and 2D, respectively) to resemble the mucosa of BF control (FIG. 2A).

[3] = tested on: murine model for NEC (mNEC); assay: Pre-treatment with CpG-1 48 hours prior to attempted induction of mNEC; format: in vivo, mouse; settings: administered 48 hours prior to attempted induction of mNEC
Protocol: FIG. 6A-C. Effects of pre-treatment of mice prior to induction of NEC. (A) Mucosal iNOS expression (as measured by RT-PCR) in BF controls, untreated mNEC animals, mice pre-treated with CpG-1 for 48 hours prior to attempted induction of NEC (“mNEC Cpg1”) and BF mice treated with CpG-1 for 48 hours. (B) Mucosal TNFα expression (as measured by RT-PCR) in BF controls, untreated mNEC animals, mice pre-treated with CpG-1 for 48 hours prior to attempted induction of NEC (“mNEC Cpg1”) and BF mice treated with CpG-1 for 48 hours. (C) Weight at the time of euthanasia of BF controls, untreated mNEC animals, mice pre-treated with CpG-1 for 48 hours prior to attempted induction of NEC (“mNEC Cpg1”) and BF mice treated with CpG-1 for 48 hours.
as §3

[4] = tested on: experimental NEC in neonatal mice; assay: Experimental NEC in neonatal mice (formula feeding and hypoxia), oral CpG (Example 2); format: in vivo, mouse
Protocol: as §1
Committee of the University of Pittsburgh. Swiss Webster mice were obtained from Charles River Laboratories. NEC was induced in 7-10 day old mice as described by Leaphart et al. (21) and Afrazi et al. (54) using formula gavage (a 2:1 ratio of Similac Advance infant formula (Ross Pediatrics):Esbilac canine milk replacer) administered five times/day, along with hypoxia (5% O2, 95% N2) for 10 min in a hypoxic chamber (Billups-Rothenberg, Inc., Del Mar, Calif.) twice daily, for 4 days. This protocol results in the development of patchy necrosis involving the small intestine, which is similar to human NEC, with an increase in circulating cytokines that mimics that observed in human NEC (40). CpG was administered via the oral route at a concentration of 1 mg/kg/day, which included […] of pretreatment prior to the start of the NEC model. Disease severity was determined on histological sections of the terminal ileum by a pediatric pathologist blinded to the study condition according to a scoring system from 0 (normal) to 3 (severe), as described by Leaphart et al. (21).
as §2
Statistical analysis was performed using SPSS 13.0 software. ANOVA was used for comparisons for experiments involving more than two experimental groups. Two-tailed student's t-test was used for comparison for experiments consisting of two experimental groups. For analysis of the severity of NEC, chi-square analysis was performed.

[5] = tested on: NFκB; assay: NFκB activation in intestinal mucosa of NFκB-GFP transgenic newborn mice with mNEC, confocal microscopy; format: in vivo, mouse; settings: mNEC mice vs saline-treated mNEC, FIG. 4A-D
Text: FIG. 4A-D. Confocal microscopy showing extent of NFκB activation in intestinal mucosa of newborn transgenic mice that express NFκB-GFP. Nuclei are indicated by areas of blue fluorescence. NFκB is detected by a red fluorescent anti-GFP antibody, and is more punctate. Newborn mice were either (A) BF controls treated with saline; (B) mNEC mice treated with saline; or (C) mNEC mice treated with CpG-2. (D) is graphical depiction of results, showing the relative red (GFP) pixel intensity for each animal.
A murine model for NEC (“mNEC”) was produced in newborn mice by 4 days of hypoxia and formula gavage (52), which leads to the induction of iNOS, reduced enterocyte proliferation, and disruption of the ileal mucosa (“mNEC” mice) as compared to control mice that were allowed to breast feed (“BF” mice”). Specifically, mNEC was induced in 10-d-old mice (12) using formula gavage [Similac Advance infant formula (Abbott Nutrition):Esbilac canine milk replacer, 2:1] 50 μL/g body weight, five times per day for 4 d, and hypoxia (5% O2, 95% N2) administered for 10 min twice daily for 4 d using a hypoxia chamber (Billups-Rothenberg Inc.). CpG-1 was […]-3′ (SEQ ID NO:6), containing phosphorothioate linkages, known in the art as CpG ODN 1826 (Coley Pharmaceutical Group, Ottawa, Ontario, Canada (Pfizer)). CpG-2 was 5′ […] 3′ (SEQ ID NO:9). […]

[6] = control tissue (healed NEC at stoma closure), FIG. 8A

Substance | LPS-induced increase in expression of IL1β (qRT-PCR) [1, 6] | LPS-induced increase in expression of TLR4 (qRT-PCR) [1, 6] | LPS-induced expression of IL-6 (qRT-PCR) ([1]; human NEC tissue, FIG. 8B) | LPS-induced expression of iNOS (qRT-PCR) ([1]; human NEC tissue, FIG. 8B) | gross morphology [2] | inducible nitric oxide synthase (iNOS) level (qRT-PCR) ([2]; mNEC mice versus BF controls, oral CpG, FIG. 3B) | expression of TNFα in the intestines (quantitative RT-PCR) [2] | disruption of the small intestine mucosa (H&E histology) ([2]; oral treatment) | body weight [2] | mucosal expression of iNOS (RT-PCR) ([3]; FIG. 6A) | mucosal expression of TNFα (RT-PCR) ([3]; FIG. 6B) | weight at the time of euthanasia ([3]; FIG. 6C) | expression of iNOS in the intestinal mucosa (qRT-PCR) ([4]; oral 1 mg/kg, formula-fed NEC mice, FIG. 7B(i), p<0.05 FF+CpG vs FF) | expression of IL-6 in the intestinal mucosa (qRT-PCR) ([4]; oral 1 mg/kg, formula-fed NEC mice, FIG. 7B(ii), p<0.05 FF+CpG vs FF) | NEC severity score ([4]; oral 1 mg/kg, score 0 (normal) to 3 (severe), FIG. 7B(iii)) | intestinal inflammation (ileum photomicrographs and gross images) ([4]; oral 1 mg/kg/day incl. 4 days pretreatment, formula-fed NEC mice, FIG. 7A) | disease severity ([2]; mNEC animals, oral treatment, FIG. 3A) | nuclear localization of NFκB (punctate red fluorescence) [5]
CpG ODN 1826 [CpG-1] | reduced | reduced | reduced | reduced | much more robust | substantially reduced | brought the levels of TNFα in mNEC animals down to approach the level in BF controls | ameliorated | higher body weight | reduced almost to baseline levels | reduced almost to baseline levels | approached controls | reduced | reduced | reduced | attenuates intestinal inflammation | – | –
CpG-2: CpG-ODN 5′ TCGTCGTTTTGTCGTTCCTGACGTT 3′ (SEQ ID NO:9) (listed as DNA, chemistry not given here) | – | – | – | – | much more robust | – | brought the levels of TNFα in mNEC animals down to approach the level in BF controls | ameliorated | higher body weight | – | – | – | – | – | – | – | trended towards but did not reach statistical significance | largely absent
